{
  "source": "paper PMC9481570",
  "about": "“A small molecule antagonist of SMN disrupts the interaction between SMN and RNAP II” (Nature Communications, 2022)",
  "test_in_all_cases": "Affinity-purification and mass spectrometry (AP-MS) chemical proteomics, all proteins;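 as to Difference: 200 µM free competitor with 20 µM biotin probe overnight in lysate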",
  "type_in_all_cases": "binding",
  "key": {"[1]": {"target": "T1, proteins displaced from immobilized biotin-Cmpd 1 pulldowns (U2OS cell lysate) (Homo sapiens, UniProt P05089)", "T1 construct": "endogenous in cells; host or cells: U2OS", "T1 sequence (P05089 whole entry)": "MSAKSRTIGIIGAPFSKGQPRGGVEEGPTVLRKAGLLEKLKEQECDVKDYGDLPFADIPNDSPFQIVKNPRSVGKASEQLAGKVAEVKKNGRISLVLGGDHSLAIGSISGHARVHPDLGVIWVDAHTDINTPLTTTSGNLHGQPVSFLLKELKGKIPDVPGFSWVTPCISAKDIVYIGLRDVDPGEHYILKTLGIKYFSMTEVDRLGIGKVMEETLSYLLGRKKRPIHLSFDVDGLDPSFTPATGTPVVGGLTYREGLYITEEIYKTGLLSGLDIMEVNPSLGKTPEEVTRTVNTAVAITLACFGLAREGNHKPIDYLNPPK", "conditions": "GN=ARG1 (P05089)"}, "[2]": {"target": "T2, proteins displaced from immobilized biotin-Cmpd 1 pulldowns (U2OS cell lysate) (Homo sapiens, UniProt Q9NZT1)", "T2 construct": "endogenous in cells; host or cells: U2OS", "T2 sequence (Q9NZT1 whole entry)": "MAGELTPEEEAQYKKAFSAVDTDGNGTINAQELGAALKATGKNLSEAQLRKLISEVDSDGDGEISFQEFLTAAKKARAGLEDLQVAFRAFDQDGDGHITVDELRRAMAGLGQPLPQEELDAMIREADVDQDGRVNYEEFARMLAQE", "conditions": "GN=CALML5 (Q9NZT1)"}, "[3]": {"target": "T3, proteins displaced from immobilized biotin-Cmpd 1 pulldowns (U2OS cell lysate) (Homo sapiens, UniProt O75223)", "T3 construct": "endogenous in cells; host or cells: U2OS", "T3 sequence (O75223 whole entry)": "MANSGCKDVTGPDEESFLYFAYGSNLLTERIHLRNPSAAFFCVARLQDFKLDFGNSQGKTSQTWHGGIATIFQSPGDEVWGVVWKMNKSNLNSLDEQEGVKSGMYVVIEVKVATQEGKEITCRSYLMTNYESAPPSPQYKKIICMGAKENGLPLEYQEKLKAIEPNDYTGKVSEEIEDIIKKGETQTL", "conditions": "GN=GGCT (O75223)"}, "[4]": {"target": "T4, proteins displaced from immobilized biotin-Cmpd 1 pulldowns (U2OS cell lysate) (Homo sapiens, UniProt Q13867)", "T4 construct": "endogenous in cells; host or cells: U2OS", "T4 sequence (Q13867 whole entry)": "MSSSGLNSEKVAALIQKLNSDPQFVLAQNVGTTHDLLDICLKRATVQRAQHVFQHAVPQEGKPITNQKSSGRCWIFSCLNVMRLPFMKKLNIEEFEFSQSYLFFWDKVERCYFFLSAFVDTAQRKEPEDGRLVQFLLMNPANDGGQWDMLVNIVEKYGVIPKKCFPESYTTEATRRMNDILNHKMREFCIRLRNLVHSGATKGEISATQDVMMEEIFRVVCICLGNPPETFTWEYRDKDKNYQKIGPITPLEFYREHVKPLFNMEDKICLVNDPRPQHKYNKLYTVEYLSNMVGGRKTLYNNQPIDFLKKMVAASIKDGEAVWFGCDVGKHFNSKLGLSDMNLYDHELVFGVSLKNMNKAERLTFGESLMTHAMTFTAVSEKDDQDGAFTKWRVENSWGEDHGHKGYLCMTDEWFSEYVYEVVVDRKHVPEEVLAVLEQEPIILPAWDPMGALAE", "conditions": "GN=BLMH (Q13867)"}, "[5]": {"target": "T5, proteins displaced from immobilized biotin-Cmpd 1 pulldowns (U2OS cell lysate) (Homo sapiens, UniProt Q9NZM5)", "T5 construct": "endogenous in cells; host or cells: U2OS", "conditions": "GN=NOP53 (Q9NZM5)"}, "[6]": {"target": "T6, proteins displaced from immobilized biotin-Cmpd 1 pulldowns (U2OS cell lysate) (Homo sapiens, UniProt Q9Y5B9)", "T6 construct": "endogenous in cells; host or cells: U2OS", "T6 sequence (Q9Y5B9 whole entry)": "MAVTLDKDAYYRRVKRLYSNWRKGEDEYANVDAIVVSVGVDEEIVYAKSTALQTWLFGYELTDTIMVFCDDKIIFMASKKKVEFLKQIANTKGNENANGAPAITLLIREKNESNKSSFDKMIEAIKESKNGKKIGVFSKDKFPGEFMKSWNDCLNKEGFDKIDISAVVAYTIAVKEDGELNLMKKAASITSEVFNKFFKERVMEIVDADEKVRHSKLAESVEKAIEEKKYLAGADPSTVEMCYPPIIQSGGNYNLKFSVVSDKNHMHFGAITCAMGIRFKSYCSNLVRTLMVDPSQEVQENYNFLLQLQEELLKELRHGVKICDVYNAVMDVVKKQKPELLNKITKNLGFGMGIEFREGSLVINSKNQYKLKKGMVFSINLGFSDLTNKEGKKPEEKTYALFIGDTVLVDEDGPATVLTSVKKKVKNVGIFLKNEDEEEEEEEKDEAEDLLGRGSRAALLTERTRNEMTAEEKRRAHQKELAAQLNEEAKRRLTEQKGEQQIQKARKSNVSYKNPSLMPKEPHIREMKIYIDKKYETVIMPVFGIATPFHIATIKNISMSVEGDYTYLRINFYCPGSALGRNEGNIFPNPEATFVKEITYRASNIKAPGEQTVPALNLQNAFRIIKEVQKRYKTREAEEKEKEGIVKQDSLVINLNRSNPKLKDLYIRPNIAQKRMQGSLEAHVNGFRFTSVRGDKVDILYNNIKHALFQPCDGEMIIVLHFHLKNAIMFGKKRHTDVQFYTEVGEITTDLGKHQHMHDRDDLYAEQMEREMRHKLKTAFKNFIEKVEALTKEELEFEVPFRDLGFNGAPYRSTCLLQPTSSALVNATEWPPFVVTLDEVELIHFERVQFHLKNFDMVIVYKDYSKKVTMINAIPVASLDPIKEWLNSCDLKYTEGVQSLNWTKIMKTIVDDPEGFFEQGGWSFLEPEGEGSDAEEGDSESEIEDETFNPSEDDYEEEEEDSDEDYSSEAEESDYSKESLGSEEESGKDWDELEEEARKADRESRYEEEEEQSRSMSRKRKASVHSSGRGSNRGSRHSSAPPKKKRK", "conditions": "GN=SUPT16H (Q9Y5B9)"}, "[7]": {"target": "T7, proteins displaced from immobilized biotin-Cmpd 1 pulldowns (U2OS cell lysate) (Homo sapiens, UniProt P16615)", "T7 construct": "endogenous in cells; host or cells: U2OS", "T7 sequence (P16615 whole entry)": "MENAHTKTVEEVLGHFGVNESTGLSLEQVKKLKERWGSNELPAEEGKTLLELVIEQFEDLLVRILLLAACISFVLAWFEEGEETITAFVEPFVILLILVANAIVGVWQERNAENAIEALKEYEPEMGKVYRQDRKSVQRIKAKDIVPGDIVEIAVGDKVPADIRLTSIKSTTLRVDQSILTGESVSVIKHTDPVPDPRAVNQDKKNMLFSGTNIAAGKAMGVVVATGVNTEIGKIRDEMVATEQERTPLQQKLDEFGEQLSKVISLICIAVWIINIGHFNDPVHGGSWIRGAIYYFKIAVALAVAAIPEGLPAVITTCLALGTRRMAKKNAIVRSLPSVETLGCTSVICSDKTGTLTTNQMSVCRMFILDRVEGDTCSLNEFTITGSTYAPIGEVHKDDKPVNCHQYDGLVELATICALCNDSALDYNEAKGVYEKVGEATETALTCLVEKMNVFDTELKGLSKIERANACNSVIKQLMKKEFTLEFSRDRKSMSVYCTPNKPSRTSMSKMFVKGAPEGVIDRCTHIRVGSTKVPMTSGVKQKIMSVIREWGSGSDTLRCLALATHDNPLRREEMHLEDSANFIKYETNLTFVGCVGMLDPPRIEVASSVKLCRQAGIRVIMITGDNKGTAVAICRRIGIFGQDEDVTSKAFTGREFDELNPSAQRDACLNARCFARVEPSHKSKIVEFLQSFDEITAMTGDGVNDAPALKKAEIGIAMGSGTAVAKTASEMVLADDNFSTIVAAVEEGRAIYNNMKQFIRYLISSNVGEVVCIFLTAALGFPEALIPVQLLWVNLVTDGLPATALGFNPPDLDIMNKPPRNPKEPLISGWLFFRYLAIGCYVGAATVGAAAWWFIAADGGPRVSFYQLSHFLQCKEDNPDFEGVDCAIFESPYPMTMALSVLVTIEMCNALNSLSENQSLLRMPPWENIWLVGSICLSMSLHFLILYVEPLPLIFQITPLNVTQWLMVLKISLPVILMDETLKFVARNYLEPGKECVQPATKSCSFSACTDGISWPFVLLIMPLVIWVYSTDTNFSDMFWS", "conditions": "GN=ATP2A2 (P16615)"}, "[8]": {"target": "T8, proteins displaced from immobilized biotin-Cmpd 1 pulldowns (U2OS cell lysate) (Homo sapiens, UniProt P25311)", "T8 construct": "endogenous in cells; host or cells: U2OS", "T8 sequence (P25311 21-298)": "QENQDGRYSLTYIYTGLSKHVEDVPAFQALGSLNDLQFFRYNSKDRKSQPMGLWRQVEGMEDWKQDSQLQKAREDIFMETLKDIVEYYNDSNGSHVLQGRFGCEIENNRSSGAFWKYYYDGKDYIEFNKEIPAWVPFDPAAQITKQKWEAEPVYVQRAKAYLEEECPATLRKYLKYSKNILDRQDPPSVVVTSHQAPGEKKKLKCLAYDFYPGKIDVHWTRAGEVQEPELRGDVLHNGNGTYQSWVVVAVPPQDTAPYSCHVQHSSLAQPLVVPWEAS", "conditions": "GN=AZGP1 (P25311)"}, "[9]": {"target": "T9, proteins displaced from immobilized biotin-Cmpd 1 pulldowns (U2OS cell lysate) (Homo sapiens, UniProt P06733)", "T9 construct": "endogenous in cells; host or cells: U2OS", "T9 sequence (P06733 whole entry)": "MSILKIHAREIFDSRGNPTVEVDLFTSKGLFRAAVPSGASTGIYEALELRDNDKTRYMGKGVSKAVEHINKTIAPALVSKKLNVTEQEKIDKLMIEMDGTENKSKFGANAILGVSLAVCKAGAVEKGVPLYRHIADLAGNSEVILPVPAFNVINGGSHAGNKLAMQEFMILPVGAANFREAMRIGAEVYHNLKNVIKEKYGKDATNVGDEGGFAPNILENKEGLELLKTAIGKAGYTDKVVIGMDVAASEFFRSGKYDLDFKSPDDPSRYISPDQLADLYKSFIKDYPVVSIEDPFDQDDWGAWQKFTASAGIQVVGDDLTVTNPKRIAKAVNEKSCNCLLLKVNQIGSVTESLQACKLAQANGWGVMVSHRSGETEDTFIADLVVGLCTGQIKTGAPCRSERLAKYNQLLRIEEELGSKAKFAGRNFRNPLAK", "conditions": "GN=ENO1 (P06733)"}, "[10]": {"target": "T10, proteins displaced from immobilized biotin-Cmpd 1 pulldowns (U2OS cell lysate) (Homo sapiens, UniProt P06493)", "T10 construct": "endogenous in cells; host or cells: U2OS", "T10 sequence (P06493 whole entry)": "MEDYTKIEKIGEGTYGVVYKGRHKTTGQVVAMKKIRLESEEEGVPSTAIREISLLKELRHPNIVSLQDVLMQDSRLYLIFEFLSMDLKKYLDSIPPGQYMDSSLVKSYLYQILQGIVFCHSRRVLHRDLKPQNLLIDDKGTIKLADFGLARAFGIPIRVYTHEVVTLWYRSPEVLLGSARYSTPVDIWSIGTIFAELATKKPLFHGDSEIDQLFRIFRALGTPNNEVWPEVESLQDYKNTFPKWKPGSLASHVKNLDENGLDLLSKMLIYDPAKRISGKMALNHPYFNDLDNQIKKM", "conditions": "GN=CDK1 (P06493)"}},
  "note": "Values joined by “and” are separate entries in the source; they are usually repeats but may differ in a detail not shown here. Identical values can stand only once.",
  "data": [
    {"smiles": "Cn1c2c(c(=N)c3c1CCC3)CCC2", "note": "[Compound 1, 4-methyl-2,3,4,5,6,7-hexahydrodicyclopenta[b,e]pyridin-8(1H)-imine]", "values": [
      {"measurement": "Difference", "setting": "[1]; Cmpd minus DMSO, -LOG(P-value) 0.796604", "value": -1.277},
      {"measurement": "iBAQ Cmpd", "setting": "[1]; replicates 1-3", "value": "21.3858 and 21.3863 and 20.4096"},
      {"measurement": "Difference", "setting": "[2]; Cmpd minus DMSO, -LOG(P-value) 2.02756", "value": -2.389},
      {"measurement": "iBAQ Cmpd", "setting": "[2]; replicates 1-3", "value": "18.8431 and 20.0939 and 20.182"},
      {"measurement": "Difference", "setting": "[3]; Cmpd minus DMSO, -LOG(P-value) 0.708043", "value": -1.888},
      {"measurement": "iBAQ Cmpd", "setting": "[3]; replicates 1-3", "value": "19.1406 and 20.1765 and 18.5823"},
      {"measurement": "Difference", "setting": "[4]; Cmpd minus DMSO, -LOG(P-value) 0.904295", "value": -3.65},
      {"measurement": "iBAQ Cmpd", "setting": "[4]; replicates 1-3", "value": "19.0378 and 19.0387 and 13.7316"},
      {"measurement": "Difference", "setting": "[5]; Cmpd minus DMSO, -LOG(P-value) 0.867991", "value": 2.66},
      {"measurement": "iBAQ Cmpd", "setting": "[5]; replicates 1-3", "value": "18.4766 and 17.8155 and 17.9258"},
      {"measurement": "Difference", "setting": "[6]; Cmpd minus DMSO, -LOG(P-value) 1.35125", "value": 1.168},
      {"measurement": "iBAQ Cmpd", "setting": "[6]; replicates 1-3", "value": "20.1986 and 19.3251 and 19.6735"},
      {"measurement": "Difference", "setting": "[7]; Cmpd minus DMSO, -LOG(P-value) 0.792118", "value": 1.325},
      {"measurement": "iBAQ Cmpd", "setting": "[7]; replicates 1-3", "value": "18.9227 and 18.7034 and 17.2331"},
      {"measurement": "Difference", "setting": "[8]; Cmpd minus DMSO, -LOG(P-value) 0.92202", "value": -1.239},
      {"measurement": "iBAQ Cmpd", "setting": "[8]; replicates 1-3", "value": "21.041 and 21.3151 and 19.6243"},
      {"measurement": "Difference", "setting": "[9]; Cmpd minus DMSO, -LOG(P-value) 1.38674", "value": -0.4405},
      {"measurement": "iBAQ Cmpd", "setting": "[9]; replicates 1-3", "value": "21.5649 and 21.7568 and 21.506"},
      {"measurement": "Difference", "setting": "[10]; Cmpd minus DMSO, -LOG(P-value) 0.868994", "value": -0.7208},
      {"measurement": "iBAQ Cmpd", "setting": "[10]; replicates 1-3", "value": "20.3513 and 19.7871 and 19.2381"}
    ]}
  ]
}
